Target: T1, Ubiquitin carboxyl-terminal hydrolase 7 [208-1102] (Human, UniProt Q93009)
T1 construct: 208-1102
Test: USP7 Assay A (Ubitquin-Rhodamine 110 Assay)
Experimental: Each assay was performed in a final volume of 15 μL in assay buffer containing 20 mM Tris-HCl (pH 8.0, (1M Tris-HCl, pH 8.0 solution; Corning 46-031-CM)), 1 mM GSH (L-Glutathione reduced; Sigma # G4251), 0.03% BGG (0.22 μM filtered, Sigma, # G7516-25G), and 0.01% Triton X-100 (Sigma, # T9284-10L). Nanoliter quantities of either an 8-point or 10-point, 3-fold serial dilution in DMSO was pre-dispensed into assay plates (Perkin Elmer, ProxiPlate-384 F Plus, #6008269) for a final test concentration range of either 25 μM to 11 nM or 25 μM to 1.3 nM, respectively. The final concentration of the enzyme (USP7, construct USP7 (208-1102) 6*His, Viva Biotech) in the assay was 62.5 pM. Final substrate (Ub-Rh110; Ubiquitin-Rhodamine 110, R&D Systems # U-555) concentration was 25 nM with [Ub-Rh110]<<Km. 5 μL of 2× enzyme was added to assay plates (pre-stamped with compound) preincubated with USP7 for 30 min and then 5 μL of 2×Ub-Rh110 was added to assay plates. Plates were incubated stacked for 20 min at room temperature before 5 μL of stop solution (final concentration of 10 mM citric acid in assay buffer (Sigma, #251275-500G)). Fluorescence was read on the Envision (Excitation at 485 nm and Emission at 535 nm; Perkin Elmer) or on the PheraSTAR (Excitation at 485 nm and Emission at 535 nm; BMG Labtech).

T1 sequence (Q93009 208-1102): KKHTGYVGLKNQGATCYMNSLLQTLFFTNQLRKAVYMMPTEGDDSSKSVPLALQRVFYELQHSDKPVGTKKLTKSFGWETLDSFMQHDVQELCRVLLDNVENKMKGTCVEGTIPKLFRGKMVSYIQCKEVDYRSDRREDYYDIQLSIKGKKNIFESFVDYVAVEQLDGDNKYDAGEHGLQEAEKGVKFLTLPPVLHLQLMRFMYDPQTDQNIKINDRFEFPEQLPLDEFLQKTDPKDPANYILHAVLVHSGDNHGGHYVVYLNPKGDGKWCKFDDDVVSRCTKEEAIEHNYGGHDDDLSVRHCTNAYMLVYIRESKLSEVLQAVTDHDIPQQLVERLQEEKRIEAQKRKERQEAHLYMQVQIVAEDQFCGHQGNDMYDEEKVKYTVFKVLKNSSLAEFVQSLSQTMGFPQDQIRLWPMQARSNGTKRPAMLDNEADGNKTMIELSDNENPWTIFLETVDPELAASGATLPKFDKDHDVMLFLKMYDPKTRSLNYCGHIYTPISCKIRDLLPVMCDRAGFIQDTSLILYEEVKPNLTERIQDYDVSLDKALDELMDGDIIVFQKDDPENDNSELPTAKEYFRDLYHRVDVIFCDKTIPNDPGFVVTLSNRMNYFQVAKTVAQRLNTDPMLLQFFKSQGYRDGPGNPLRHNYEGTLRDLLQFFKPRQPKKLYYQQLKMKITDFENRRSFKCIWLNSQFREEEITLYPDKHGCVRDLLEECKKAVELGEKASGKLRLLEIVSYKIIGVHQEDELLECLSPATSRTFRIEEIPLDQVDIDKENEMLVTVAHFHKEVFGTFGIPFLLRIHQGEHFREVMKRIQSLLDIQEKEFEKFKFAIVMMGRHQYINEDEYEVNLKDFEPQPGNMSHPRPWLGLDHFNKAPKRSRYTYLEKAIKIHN

Which IC50 does the source give for `COc1cccc2c(=O)n(CC3(O)CCN(C(=O)CC(C)c4ccccc4)CC3)cnc12` (stereo unspecified) [US10836741, Example I-6] here?
Its IC50 is < 200 nM.
